For one data set, the system named is MCF-7 cells. Particulars: for Vmax: MCF-7, precursor DHEA or E1 0–100 nM, Michaelis–Menten. How it is done:
(§1) Briefly, cartridges were preconditioned with 2 × 1.0 ml acetonitrile and 3 × 1.0 ml ammonium acetate buffer (10 mM, pH = 5.0), and the samples were loaded onto the columns. After washing with 1 × 1.0 ml ammonium acetate buffer (10 mM, pH = 5.0) and 2 × 1.0 ml acetonitrile/ammonium acetate buffer (10 mM, pH 5.0) 10:90 (v/v), the analytes were eluted using 2 × 650 μl acetonitrile/ammonium acetate buffer (10 mM, pH = 5.0) 95:5 (v/v) and evaporated until dry. Subsequently, samples were reconstituted in 270 μl acetonitrile/ammonium acetate buffer (10 mM, pH = 5.0) 25:75 (v/v) and stored at -80°C until further LC–HRMS analysis.
(§2) After media collection, cell monolayers were washed five times with 2.0 ml DPBS, detached using 400 μl TrypLE® solution (37°C, 5 min), mixed with 600 μl DPBS and transferred into sample vials. Aliquots of these suspensions (100 μl each) were diluted and counted using the Casy® TT Cell Counter to determine the exact number of cells per sample well. The remaining cell suspensions (900 μl each) were gently centrifuged (1000 rpm, 8 min), and the supernatants were discarded. The cell pellets were subsequently resuspended in 100 μl aqueous ammonium acetate buffer (10 mM, pH = 5.0) and lysed by five freeze-thaw-cycles in liquid nitrogen (3 min each), followed by thawing at ambient temperature. Ammonium acetate buffer (1000 μl) was added, and the suspensions were centrifuged (14000 rpm, 5 min). Subsequently, the supernatants were concentrated using the same SPE protocol as described above. All processed samples were then stored at -80°C until further LC–HRMS analysis. For each condition, three biologically independent experiments were performed; the reported values represent the overall means ± SD of all values.
(§3) LC was performed with an UltiMate 3000 RSLC-series system coupled to a maXis HD ESI-Qq-TOF mass spectrometer (Bruker Corporation, Bremen, Germany). A Phenomenex Luna® 3 μm C18(2) 100 Å LC column (250 mm × 4.6 mm I.D.; Phenomenex, Inc., Torrance, CA, United States), preceded by a Hypersil® BDS-C18 guard column (5 μm, 10 mm × 4.6 mm I.D.; Thermo Fisher Scientific, Inc.) was used for the separation of the analytes at a flow rate of 1.0 ml/min and a temperature of 43°C. […] The ESI ion source settings were as follows: capillary voltage: -4.5 kV; dry gas flow rate: 8.0 l/min N2; nebulizer: 1.0 bar N2; and dry temperature: 200°C. The ion transfer parameters were set to 400 Vpp funnel RF and 300 Vpp multipole RF, the quadrupole ion energy was 8.0 eV, and the collision cell parameters were as follows: collision RF, 1100 Vpp; collision energy, 10.0 eV; transfer time, 38 μs; and pre-pulse storage, 18 μs. In the range of m/z 150–500, full-scan mass spectra were recorded.
(§4) The modes of inhibition were subsequently determined from Lineweaver–Burk plots, and the corresponding Ki values were calculated from Dixon plots using GraphPad Prism 6.0.

Another data set has as its system MDA-MB-231 cells. Particulars: for Km / Vmax: MDA-MB-231, precursor DHEA or E1 0–100 nM, Michaelis–Menten. How it is done: as §1, §2, §3, §4
The subject of data set [1] is steroid metabolism in MCF-7 cells. The data set is described as follows: Inhibition of steroid metabolism by RES in MCF-7 cells (LC–HRMS). How it is done: as §1, §2, §3, §4

Molecules are shown by their SMILES. Values joined by “and” are separate entries in the source; they are usually repeats but may differ in a detail not shown here. Equal entries are not always repeated. Where two headings read alike, the source gives them in different places.

The Km is the concentration of substrate that gives half-maximal velocity. For `C[C@]12CC[C@@H]3c4ccc(O)cc4CC[C@H]3[C@@H]1CC[C@@H]2O` [E2, 17β-estradiol], the formation rate in the data set on MCF-7 cells (MCF-7, 100 nM E1, 48 h) is on record as 233.9 ± 13.4 fmol/10^6 cells/h; with MDA-MB-231 cells (MDA-MB-231, 100 nM E1, 48 h) it was 258.9 ± 25.1 fmol/10^6 cells/h. The Vmax with MCF-7 cells (48 h) is listed as 628.6 ± 62.0 fmol/10^6 cells/h; in the data set with MDA-MB-231 cells (48 h), 703.0 ± 164.5 fmol/10^6 cells/h; in data set [1] (MCF-7, 0 μM RES), 628.6 ± 72.0 fmol/10^6 cells/h; in data set [1] (MCF-7, 5 μM RES), 816.4 ± 76.6^∗ fmol/10^6 cells/h; in data set [1] (MCF-7, 10 μM RES), 1001.4 ± 43.0^∗ fmol/10^6 cells/h; in data set [1] (MCF-7, 25 μM RES), 1079.8 ± 71.4^∗ fmol/10^6 cells/h. Moreover, the Vmax in data set [1] (MCF-7, 50 μM RES) is 1247.3 ± 56.2^∗ fmol/10^6 cells/h; in data set [1] (MCF-7, 100 μM RES), 1302.2 ± 64.6^∗ fmol/10^6 cells/h. Moreover, the Km is 0.174 ± 0.0941 µM in the data set with MDA-MB-231 cells (48 h); 0.169 ± 0.0117 µM in data set [1] (MCF-7, 0 μM RES); 0.146 ± 0.0156 µM in data set [1] (MCF-7, 5 μM RES); 0.155 ± 0.0097 µM in data set [1] (MCF-7, 10 μM RES); 0.153 ± 0.0136 µM in data set [1] (MCF-7, 25 μM RES); 0.172 ± 0.0143 µM in data set [1] (MCF-7, 50 μM RES). The Michaelis constant (Km) in data set [1] (MCF-7, 100 μM RES) turned out to be 0.174 ± 0.012 µM. For the same compound, the “formation rate in the presence of RES” value in data set [1] (MCF-7, 100 nM E1 + 100 μM RES, 48 h) amounted to 471.5 ± 43.6 fmol/10^6 cells/h.

`C[C@]12CC[C@@H]3c4ccc(O[C@@H]5O[C@H](C(=O)O)[C@@H](O)[C@H](O)[C@H]5O)cc4CC[C@H]3[C@@H]1CC[C@@H]2O` [E2-G, 17β-estradiol-3-O-(β-D-glucuronide)]: the Vmax in the data set with MCF-7 cells (48 h) was 7.29 ± 1.36 fmol/10^6 cells/h and 7.29 ± 1.36^∗ fmol/10^6 cells/h; with MDA-MB-231 cells (48 h), 0.33 ± 0.07 fmol/10^6 cells/h; in data set [1] (MCF-7, 0 μM RES), 7.29 ± 0.36 fmol/10^6 cells/h; in data set [1] (MCF-7, 5 μM RES), 7.00 ± 0.20 fmol/10^6 cells/h; in data set [1] (MCF-7, 10 μM RES), 4.98 ± 0.14^∗ fmol/10^6 cells/h; in data set [1] (MCF-7, 25 μM RES), 2.60 ± 0.12^∗ fmol/10^6 cells/h. The Vmax in data set [1] (MCF-7, 50 μM RES) is given as 1.51 ± 0.11^∗ fmol/10^6 cells/h; in data set [1] (MCF-7, 100 μM RES) it was 0.77 ± 0.02^∗ fmol/10^6 cells/h. For the same compound, the formation rate with MCF-7 cells (human, 48 h, 100 nM) was 3.23 ± 0.45 fmol/10^6 cells/h; with MDA-MB-231 cells (human, 48 h, 100 nM), 0.18 ± 0.02 fmol/10^6 cells/h. Further, the Km stood at 0.0879 ± 0.0322 µM in the data set with MDA-MB-231 cells (48 h); 0.123 ± 0.0084 µM in data set [1] (MCF-7, 0 μM RES); 0.135 ± 0.0059 µM in data set [1] (MCF-7, 5 μM RES); 0.136 ± 0.006 µM in data set [1] (MCF-7, 10 μM RES); 0.132 ± 0.008 µM in data set [1] (MCF-7, 25 μM RES); 0.126 ± 0.0132 µM in data set [1] (MCF-7, 50 μM RES). For the same compound, the Km in data set [1] (MCF-7, 100 μM RES) came to 0.132 ± 0.0039 µM.

Take `C[C@]12CC[C@@H]3c4ccc(OS(=O)(=O)O)cc4CC[C@H]3[C@@H]1CC[C@@H]2O` [E2-S, 17β-estradiol-3-O-sulfate]: the formation rate is recorded as 11.8 ± 0.8 fmol/10^6 cells/h with MCF-7 cells (MCF-7, 100 nM E1, 48 h) and 0.12 ± 0.02 fmol/10^6 cells/h in the data set on MDA-MB-231 cells (MDA-MB-231, 100 nM E1, 48 h). For the same compound, the Vmax is 24.7 ± 4.9 fmol/10^6 cells/h and 24.7 ± 4.9^∗ fmol/10^6 cells/h with MCF-7 cells (48 h); 0.16 ± 0.02 fmol/10^6 cells/h in the data set on MDA-MB-231 cells (48 h); 24.7 ± 4.9 fmol/10^6 cells/h in data set [1] (MCF-7, 0 μM RES); 6.64 ± 0.58^∗ fmol/10^6 cells/h in data set [1] (MCF-7, 5 μM RES); 2.34 ± 0.19^∗ fmol/10^6 cells/h in data set [1] (MCF-7, 10 μM RES); 1.01 ± 0.10^∗ fmol/10^6 cells/h in data set [1] (MCF-7, 25 μM RES). Also, the Vmax was 0.56 ± 0.01^∗ fmol/10^6 cells/h in data set [1] (MCF-7, 50 μM RES) and 0.27 ± 0.01^∗ fmol/10^6 cells/h in data set [1] (MCF-7, 100 μM RES). Moreover, the Michaelis-Menten constant (Km) in the data set on MDA-MB-231 cells (48 h) worked out at 0.038 ± 0.0136 µM; in data set [1] (MCF-7, 0 μM RES) it was 0.104 ± 0.0155 µM; in data set [1] (MCF-7, 5 μM RES) it was 0.106 ± 0.0159 µM; in data set [1] (MCF-7, 10 μM RES), 0.0993 ± 0.0128 µM; in data set [1] (MCF-7, 25 μM RES) it was 0.0949 ± 0.0147 µM; in data set [1] (MCF-7, 50 μM RES) it was 0.101 ± 0.0112 µM. The Km in data set [1] (MCF-7, 100 μM RES) was 0.0997 ± 0.006 µM.
